Measurements from patent EP0934745B1, “Use of androsterone derivatives for inhibiting DNA binding of ap-1 and airway smooth muscle proliferation” (CHARLOTTE-MECKLENBURG HOSPITAL doing business as Carolinas …, priority 1998, dated 1999).

Tested on: transcription factor activator protein-1 (AP-1)
Test: Electrophoretic mobility shift assay of DNA binding of AP-1 in nuclear protein from treated cells
Assay type: cell-based, rat
Conditions: pretreated 2 hours, then 10% FBS 6 hours; 50 µM DHEA; 2 and 10 µM 16α-BrEA (Figures 8A, 8B)
Description: To study the effect of DHEA and 16α-BrEA on activation of AP-1, a secondary response important in cellular growth and proliferation (Angel and Karin, (1991), supra) confluent monolayers of airway smooth muscle in 75-cm^2 Petri dishes were growth arrested for 24 hours in 0.5% FBS and DMEM and pretreated 2 hours with DHEA, 16α-BrEA or DMSO vehicle. Cells were then stimulated with 10% FBS in DMEM for 6 hours, nuclear protein was harvested, and electrophoretic mobility shift assays were performed as described below to determine if treatment with DHEA and 16α-BrEA impaired DNA binding of AP-1. Measurement of Cytotoxicity and Apoptosis. To assess for cytotoxicity, DHEA or 16α-BrEA were added to wells of airway smooth muscle cells previously grown to confluence in DMEM and 10% FBS. After 24 hours, media was microfuged 5 minutes and supernatant was assayed for lactate dehydrogenase activity using a commercially available assay (DG-1340K from Sigma). Cells were washed twice in DPBS and exposed to trypan blue dye (0.04% in Hanks' balanced salt solution). Cell counts were performed in five random fields using a 0.01-cm^2 ocular grid to quantitate the average number of damaged or dead cells that accumulated dye.
RNA (100 ng) was reverse-transcribed using M-MLV reverse transcriptase. […] The resulting polaroid negative was quantitated using a Bio Image Analyzer (Bio Image, Ann Arbor, MI). […]

| SMILES | DNA binding of AP-1 |
| --- | --- |
| C[C@]12CC[C@H](O)C[C@@H]1CC[C@@H]1[C@@H]2CC[C@]2(C)C(=O)[C@H](Br)C[C@@H]12 [16α-BrEA, 16α-bromoepiandrosterone] | inhibit DNA binding of AP-1 |
| C[C@]12CC[C@H](O)CC1=CC[C@@H]1[C@@H]2CC[C@]2(C)C(=O)CC[C@@H]12 [DHEA, dehydroepiandrosterone] | inhibit DNA binding of AP-1 |
